{
  "source": "ChEMBL document CHEMBL1140551",
  "about": "“N-Benzyl-3-sulfonamidopyrrolidines as novel inhibitors of cell division in E. coli” (2007)",
  "key": {"Escherichia coli [1]": {"test_system": "Escherichia coli", "assay": "Inhibition of GTPase activity of Escherichia coli FtsZ at 100 uM"}, "Escherichia coli [2]": {"test_system": "Escherichia coli", "assay": "Antimicrobial activity against AcrAB efflux pump-deficient Escherichia coli DCR39", "type": "functional"}, "Escherichia coli [3]": {"test_system": "Escherichia coli", "assay": "Induction of filamentation in Escherichia coli DCR39 at 5 uM after 15 hrs", "type": "functional, organism-based"}},
  "note": "The source made the active and inactive calls. No cut-off for these calls is given here.",
  "data": [
    {"smiles": "Cc1ccc(F)cc1S(=O)(=O)N[C@@H]1CCN(Cc2ccc3c(c2)OCO3)C1", "values": [
      {"measurement": "inhibition", "setting": "Escherichia coli [1]", "result": 14.6, "unit": "%"},
      {"measurement": "MIC", "setting": "Escherichia coli [2]", "result": "> 80", "unit": "µM"}
    ]},
    {"smiles": "Cc1ccc(F)cc1S(=O)(=O)N[C@@H]1CCN(Cc2cccc3[nH]ccc23)C1", "values": [
      {"measurement": "inhibition", "setting": "Escherichia coli [1]", "result": 29.9, "unit": "%"},
      {"measurement": "MIC", "setting": "Escherichia coli [2]", "result": "> 80", "unit": "µM"}
    ]},
    {"smiles": "C#Cc1ccc(S(=O)(=O)N[C@@H]2CCN(Cc3ccc(CC(C)C)cc3)C2)cc1", "values": [
      {"measurement": "MIC", "setting": "Escherichia coli [2]", "result": "< 12", "unit": "µM"}
    ]},
    {"smiles": "CC(C)Cc1ccc(CN2CCC[C@@H](CNS(=O)(=O)c3cc(Cl)ccc3Cl)C2)cc1", "values": [
      {"measurement": "MIC", "setting": "Escherichia coli [2]", "result": 20, "unit": "µM"}
    ]},
    {"smiles": "CC(C)Cc1ccc(CN2CC[C@@H](NS(=O)(=O)c3cc(Cl)ccc3Cl)C2)cc1", "values": [
      {"measurement": "MIC", "setting": "Escherichia coli [2]", "result": 10, "unit": "µM"},
      {"measurement": "Activity", "setting": "Escherichia coli [3]", "result": "Active"}
    ]},
    {"smiles": "Cc1ccc(F)cc1S(=O)(=O)N[C@@H]1CCN(Cc2ccc(C(=O)c3ccccc3)cc2)C1", "values": [
      {"measurement": "MIC", "setting": "Escherichia coli [2]", "result": "> 80", "unit": "µM"}
    ]},
    {"smiles": "Cc1ccc(F)cc1S(=O)(=O)N[C@@H]1CCN(Cc2ccc(C(F)(F)F)cc2)C1", "values": [
      {"measurement": "inhibition", "setting": "Escherichia coli [1]", "result": 26.9, "unit": "%"},
      {"measurement": "MIC", "setting": "Escherichia coli [2]", "result": "> 80", "unit": "µM"}
    ]},
    {"smiles": "Cc1ccc(F)cc1S(=O)(=O)N[C@@H]1CCN(Cc2ccc(Br)cc2)C1", "values": [
      {"measurement": "inhibition", "setting": "Escherichia coli [1]", "result": 31.5, "unit": "%"},
      {"measurement": "MIC", "setting": "Escherichia coli [2]", "result": "> 80", "unit": "µM"}
    ]},
    {"smiles": "C#Cc1ccc(S(=O)(=O)N[C@@H]2CCN(Cc3ccc(N=[N+]=[N-])cc3)C2)cc1", "values": [
      {"measurement": "MIC", "setting": "Escherichia coli [2]", "result": "> 40", "unit": "µM"}
    ]},
    {"smiles": "Cc1ccc(F)cc1S(=O)(=O)N[C@@H]1CCN(Cc2ccc(-c3ccccc3)cc2)C1", "values": [
      {"measurement": "inhibition", "setting": "Escherichia coli [1]", "result": 9.4, "unit": "%"},
      {"measurement": "MIC", "setting": "Escherichia coli [2]", "result": "< 10", "unit": "µM"}
    ]},
    {"smiles": "Cc1ccc(F)cc1S(=O)(=O)N[C@@H]1CCN(Cc2ccc(Oc3ccccc3)cc2)C1", "values": [
      {"measurement": "inhibition", "setting": "Escherichia coli [1]", "result": 12.3, "unit": "%"},
      {"measurement": "MIC", "setting": "Escherichia coli [2]", "result": 20, "unit": "µM"}
    ]},
    {"smiles": "C#Cc1ccc(S(=O)(=O)N[C@@H]2CCN(Cc3ccc(OC(C)C)c(N=[N+]=[N-])c3)C2)cc1", "values": [
      {"measurement": "MIC", "setting": "Escherichia coli [2]", "result": "> 64", "unit": "µM"}
    ]},
    {"smiles": "Cc1ccc(F)cc1S(=O)(=O)N[C@@H]1CCN(Cc2ccc3[nH]ccc3c2)C1", "values": [
      {"measurement": "inhibition", "setting": "Escherichia coli [1]", "result": 24.9, "unit": "%"},
      {"measurement": "MIC", "setting": "Escherichia coli [2]", "result": "> 80", "unit": "µM"}
    ]},
    {"smiles": "Cc1ccc(F)cc1S(=O)(=O)N[C@@H]1CCN(Cc2ccc(CC(C)C)cc2)C1", "values": [
      {"measurement": "inhibition", "setting": "Escherichia coli [1]", "result": 13.7, "unit": "%"},
      {"measurement": "MIC", "setting": "Escherichia coli [2]", "result": "< 10", "unit": "µM"}
    ]},
    {"smiles": "Cc1ccc(F)cc1S(=O)(=O)N[C@@H]1CCN(C(=O)c2ccc(OC(C)C)cc2)C1", "values": [
      {"measurement": "inhibition", "setting": "Escherichia coli [1]", "result": 31.9, "unit": "%"},
      {"measurement": "MIC", "setting": "Escherichia coli [2]", "result": "> 80", "unit": "µM"}
    ]}
  ]
}
